Values quoted from earlier work in patent US8598145B2, “Mitochondrially delivered anti-cancer compounds” (priority 2008, dated 2013).

Columns and labels:
[1] = test system: Jurkat, HBT11, MCF7, MCF7-C3; conditions: Table II; cited from earlier work
B16-F1/ nude mice = conditions: Kogure et al 2005; cited from earlier work
Jurkat, U937, Meso-2 = conditions: cited from earlier work
MCF7 = conditions: Arya et al; cited from earlier work
MDA-MB-435, MCF7 = conditions: cited from earlier work
NB4, HT93 = conditions: cited from earlier work
[2] = test system: Jurkat, HBT1, MCF7, MCF7-C3, U937, Meso-2; conditions: cited from earlier work

**Q.** With Cc1c(C)c2c(c(C)c1OC(=O)C=CC(=O)O)CCC(C)(CCCC(C)CCCC(C)CCCC(C)C)O2 (centres unmarked) [Nr 3] as the compound, how does the IC50 [1] read?
**A.** 22 µM

**Q.** With Cc1c(C)c2c(c(C)c1OC(=O)C(=O)O)CCC(C)(CCCC(C)CCCC(C)CCCC(C)C)O2 (centres unmarked) [Nr 10] as the compound, how does the “cytotoxicity in mice inoculated with B16-F1 melanoma cells” value (B16-F1/ nude mice) read?
**A.** non-selective cytotoxicity

**Q.** Which “cytotoxicity in mice inoculated with B16-F1 melanoma cells” value (B16-F1/ nude mice) does the source give for Cc1c(C)c2c(c(C)c1OC(=O)CC(=O)O)CCC(C)(CCCC(C)CCCC(C)CCCC(C)C)O2 (centres unmarked) [Nr 11] here?
**A.** non-selective cytotoxicity

**Q.** For Cc1c(C)c2c(c(C)c1NC(=O)CCC(=O)O)CCC(C)(CCCC(C)CCCC(C)CCCC(C)C)O2 (centres unmarked) [Nr 12], which IC50 (Jurkat, U937, Meso-2) is on record?
**A.** 13 µM

**Q.** Which IC50 (Jurkat, U937, Meso-2) does the source give for Cc1c(C)c2c(c(C)c1NC(=O)C=CC(=O)O)CCC(C)(CCCC(C)CCCC(C)CCCC(C)C)O2 (centres unmarked) [Nr 13] here?
**A.** 2 µM

**Q.** With COC(=O)CCC(=O)Nc1c(C)c(C)c2c(c1C)CCC(C)(CCCC(C)CCCC(C)CCCC(C)C)O2 (centres unmarked) [Nr 14] as the compound, how does the IC50 (Jurkat, U937, Meso-2) read?
**A.** > 100 µM

**Q.** For Cc1c(C)c2c(c(C)c1OC(=O)C(N)CCCCN)CCC(C)(CCCC(C)CCCC(C)CCCC(C)C)O2 (centres unmarked) [Nr 16], which IC50 (MCF7) is on record?
**A.** 12 µM

**Q.** Which “EC50” value (MDA-MB-435, MCF7) does the source give for Cc1c(C)c2c(c(C)c1OCC(=O)O)CCC(C)(CCCC(C)CCCC(C)CCCC(C)C)O2 (centres unmarked) [Nr 21] here?
**A.** 15 to 20 µg/mL

**Q.** Which IC50 (NB4, HT93) does the source give for CC1=C(/C=C/C(C)=C/C=C/C(C)=C/C(=O)Oc2c(C)c(C)c3c(c2C)CCC(C)(CCCC(C)CCCC(C)CCCC(C)C)O3)C(C)(C)CCC1 (centres unmarked) [Nr 28] here?
**A.** 0.1 to 1 µM

**Q.** With Cc1cc(OC(=O)CCC(=O)O)c(C)c2c1OC(C)(CCCC(C)CCCC(C)CCCC(C)C)CC2 (centres unmarked) [Nr 32] as the compound, how does the “IC50, printed relative to α-TOS” value [2] read?
**A.** 50% of α-TOS

**Q.** For Cc1cc(OC(=O)CCC(=O)O)cc2c1OC(C)(CCCC(C)CCCC(C)CCCC(C)C)CC2 (centres unmarked) [Nr 35], which IC50 [1] is on record?
**A.** 66 µM

**Q.** For Cc1cc(OC(=O)C=CC(=O)O)cc2c1OC(C)(CCCC(C)CCCC(C)CCCC(C)C)CC2 (centres unmarked) [Nr 36], which IC50 [1] is on record?
**A.** 49 µM

**Q.** With Cc1cc(NC(=O)CCC(=O)O)cc2c1OC(C)(CCCC(C)CCCC(C)CCCC(C)C)CC2 (centres unmarked) [Nr 37] as the compound, how does the IC50 (Jurkat, U937, Meso-2) read?
**A.** 20 µM

**Q.** Which IC50 (Jurkat, U937, Meso-2) does the source give for Cc1cc(NC(=O)C=CC(=O)O)cc2c1OC(C)(CCCC(C)CCCC(C)CCCC(C)C)CC2 (centres unmarked) [Nr 38] here?
**A.** 9 µM
